Measurements reported in ChEMBL document CHEMBL1201862, “PubChem BioAssay data set” (2004).
Calls of active or inactive are those of the source.

How the values were obtained:
[1] = tested on: Streptococcus sp. 'group A'; assay: growth inhibition of control SK(-) GAS strain, dose response, counter-screen for streptokinase expression inhibitor project, luminescence, kanamycin, BacTiterGlo, confirmation (AID 1900); type: functional, organism-based
Streptococcus = assay: Group A Streptococcus viability loss, dose response, counter-screen for streptokinase expression inhibitor project, luminescence, BacTiterGlo (AID 1915); type: functional, organism-based;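 note: potency for reduction of bacterial viability or growth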
Beta-galactosidase = Beta-galactosidase (Escherichia coli, UniProt Q8VNN2); assay: beta-galactosidase enzyme inhibitors and activators, dose response, artefact control for CCR6 antagonist project, biochemical, E. coli enzyme, set 3 (AID 504712); type: functional
Sequence of Beta-galactosidase (Q8VNN2 whole entry): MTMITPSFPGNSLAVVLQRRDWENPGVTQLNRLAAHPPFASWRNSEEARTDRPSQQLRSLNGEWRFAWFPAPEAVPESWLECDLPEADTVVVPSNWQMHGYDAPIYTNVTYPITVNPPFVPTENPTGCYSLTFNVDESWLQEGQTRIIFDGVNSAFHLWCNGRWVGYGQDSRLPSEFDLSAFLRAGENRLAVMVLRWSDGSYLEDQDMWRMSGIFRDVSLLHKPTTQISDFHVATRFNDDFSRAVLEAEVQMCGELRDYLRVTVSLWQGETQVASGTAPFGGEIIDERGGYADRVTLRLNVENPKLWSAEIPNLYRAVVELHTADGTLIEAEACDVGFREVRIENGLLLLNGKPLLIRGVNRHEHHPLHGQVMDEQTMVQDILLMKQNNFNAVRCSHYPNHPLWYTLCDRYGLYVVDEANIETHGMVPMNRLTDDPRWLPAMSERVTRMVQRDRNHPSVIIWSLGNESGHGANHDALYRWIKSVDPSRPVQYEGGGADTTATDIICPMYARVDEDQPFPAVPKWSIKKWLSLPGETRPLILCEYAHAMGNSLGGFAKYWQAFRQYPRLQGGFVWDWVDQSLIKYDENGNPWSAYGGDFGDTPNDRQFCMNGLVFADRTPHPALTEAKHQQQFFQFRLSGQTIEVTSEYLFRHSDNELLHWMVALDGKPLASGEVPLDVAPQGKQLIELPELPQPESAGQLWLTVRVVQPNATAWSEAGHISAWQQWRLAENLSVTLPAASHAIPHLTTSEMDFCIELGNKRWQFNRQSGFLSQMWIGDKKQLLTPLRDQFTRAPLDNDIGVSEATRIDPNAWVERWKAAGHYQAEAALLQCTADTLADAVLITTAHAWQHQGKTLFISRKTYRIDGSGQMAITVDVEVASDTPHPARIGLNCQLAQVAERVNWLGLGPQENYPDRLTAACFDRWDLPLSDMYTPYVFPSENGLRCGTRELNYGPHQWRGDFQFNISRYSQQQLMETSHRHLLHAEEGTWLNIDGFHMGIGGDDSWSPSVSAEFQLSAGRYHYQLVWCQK

[2] = biological target: T1, Short transient receptor potential channel 4 (Mus musculus, UniProt Q9QUQ5); assay: mouse TRPC4 channel activators, dose response, cell-based, HEK293 TRPC4/mu-opioid, Fluo-4 calcium (AID 434937); type: functional
T1 sequence (Q9QUQ5 whole entry): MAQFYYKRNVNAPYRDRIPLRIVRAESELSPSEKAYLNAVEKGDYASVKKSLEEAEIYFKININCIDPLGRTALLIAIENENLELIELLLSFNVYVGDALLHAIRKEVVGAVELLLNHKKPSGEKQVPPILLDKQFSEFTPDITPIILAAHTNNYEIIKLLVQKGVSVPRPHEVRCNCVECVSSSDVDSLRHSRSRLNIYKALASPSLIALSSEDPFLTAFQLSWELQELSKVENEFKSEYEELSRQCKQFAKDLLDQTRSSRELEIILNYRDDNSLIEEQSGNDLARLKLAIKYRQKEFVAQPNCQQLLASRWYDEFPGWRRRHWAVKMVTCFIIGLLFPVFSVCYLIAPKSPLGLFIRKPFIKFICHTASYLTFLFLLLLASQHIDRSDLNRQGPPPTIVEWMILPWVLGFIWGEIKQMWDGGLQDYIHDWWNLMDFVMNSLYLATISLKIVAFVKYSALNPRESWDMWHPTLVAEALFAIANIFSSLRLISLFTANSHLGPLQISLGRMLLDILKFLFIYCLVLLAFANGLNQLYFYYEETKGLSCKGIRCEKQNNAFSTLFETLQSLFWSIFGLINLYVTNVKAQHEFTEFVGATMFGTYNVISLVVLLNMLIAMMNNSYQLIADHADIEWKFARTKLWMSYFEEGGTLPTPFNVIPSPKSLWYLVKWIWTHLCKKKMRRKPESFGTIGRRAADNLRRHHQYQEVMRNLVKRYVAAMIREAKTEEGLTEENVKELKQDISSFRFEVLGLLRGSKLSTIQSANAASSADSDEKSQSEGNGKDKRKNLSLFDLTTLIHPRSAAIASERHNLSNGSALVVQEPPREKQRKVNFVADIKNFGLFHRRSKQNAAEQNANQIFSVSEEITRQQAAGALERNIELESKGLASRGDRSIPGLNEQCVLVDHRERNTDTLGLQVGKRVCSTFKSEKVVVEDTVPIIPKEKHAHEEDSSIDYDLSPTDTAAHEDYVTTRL

[3] = biological target: T2, Replicative DNA helicase DnaB (Mycobacterium tuberculosis, UniProt P9WMR3); assay: DnaB intein splicing inhibitors, dose response, biochemical, cell-free fluorescence (AID 449749); type: functional
T2 sequence (P9WMR3 whole entry): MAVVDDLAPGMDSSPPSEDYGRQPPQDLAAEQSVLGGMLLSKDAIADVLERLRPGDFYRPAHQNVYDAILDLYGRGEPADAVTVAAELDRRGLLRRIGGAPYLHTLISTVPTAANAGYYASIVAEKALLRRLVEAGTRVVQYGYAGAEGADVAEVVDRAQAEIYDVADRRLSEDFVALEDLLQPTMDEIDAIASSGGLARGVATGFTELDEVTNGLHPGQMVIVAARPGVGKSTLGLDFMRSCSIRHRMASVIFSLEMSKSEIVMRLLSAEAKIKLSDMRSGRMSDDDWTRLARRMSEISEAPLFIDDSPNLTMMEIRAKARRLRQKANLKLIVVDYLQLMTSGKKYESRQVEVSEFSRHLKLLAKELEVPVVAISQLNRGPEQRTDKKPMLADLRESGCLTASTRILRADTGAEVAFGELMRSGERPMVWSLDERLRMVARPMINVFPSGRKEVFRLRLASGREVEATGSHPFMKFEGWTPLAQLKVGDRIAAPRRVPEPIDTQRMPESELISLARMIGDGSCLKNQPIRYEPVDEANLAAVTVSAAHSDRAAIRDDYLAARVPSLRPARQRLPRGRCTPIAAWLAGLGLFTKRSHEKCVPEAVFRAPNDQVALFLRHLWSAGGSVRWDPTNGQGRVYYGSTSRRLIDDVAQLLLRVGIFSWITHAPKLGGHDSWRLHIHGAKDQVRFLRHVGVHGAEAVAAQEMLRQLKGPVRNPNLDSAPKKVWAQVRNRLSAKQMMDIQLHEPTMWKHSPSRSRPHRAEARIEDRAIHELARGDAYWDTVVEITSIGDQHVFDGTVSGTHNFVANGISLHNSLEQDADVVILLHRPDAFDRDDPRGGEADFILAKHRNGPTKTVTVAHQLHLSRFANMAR

Apelin receptor = Apelin receptor (Homo sapiens, UniProt P35414); assay: APJ beta-arrestin recruitment antagonism, SAR follow-up, selectivity assay for CCR6 antagonist project, cell-based, luminescent, enzyme-fragment complementation (AID 588359); type: functional
Sequence of Apelin receptor (P35414 whole entry, the tested form may be a part): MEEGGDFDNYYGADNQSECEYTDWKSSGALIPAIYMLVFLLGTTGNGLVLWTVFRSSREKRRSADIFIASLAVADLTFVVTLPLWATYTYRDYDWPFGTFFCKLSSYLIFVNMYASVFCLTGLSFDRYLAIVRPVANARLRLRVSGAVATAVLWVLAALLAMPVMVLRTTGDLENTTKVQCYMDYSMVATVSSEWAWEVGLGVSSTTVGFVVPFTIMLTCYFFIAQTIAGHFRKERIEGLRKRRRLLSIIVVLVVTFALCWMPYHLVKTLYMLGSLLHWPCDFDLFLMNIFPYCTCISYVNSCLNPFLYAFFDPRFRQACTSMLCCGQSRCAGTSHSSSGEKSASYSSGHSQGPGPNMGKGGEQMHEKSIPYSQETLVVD

Protein RecA = biological target: T3, Protein RecA (Mycobacterium tuberculosis, UniProt P9WHJ3); assay: Fluorescence Cell-Free Homogeneous Dose Retest to Identify Inhibitors of RecA-Intein Splicing Activity. [Related pubchem assays (depositor defined):AID2097, AID2223, AID489010, AID492950]; type: functional
T3 sequence (P9WHJ3 whole entry): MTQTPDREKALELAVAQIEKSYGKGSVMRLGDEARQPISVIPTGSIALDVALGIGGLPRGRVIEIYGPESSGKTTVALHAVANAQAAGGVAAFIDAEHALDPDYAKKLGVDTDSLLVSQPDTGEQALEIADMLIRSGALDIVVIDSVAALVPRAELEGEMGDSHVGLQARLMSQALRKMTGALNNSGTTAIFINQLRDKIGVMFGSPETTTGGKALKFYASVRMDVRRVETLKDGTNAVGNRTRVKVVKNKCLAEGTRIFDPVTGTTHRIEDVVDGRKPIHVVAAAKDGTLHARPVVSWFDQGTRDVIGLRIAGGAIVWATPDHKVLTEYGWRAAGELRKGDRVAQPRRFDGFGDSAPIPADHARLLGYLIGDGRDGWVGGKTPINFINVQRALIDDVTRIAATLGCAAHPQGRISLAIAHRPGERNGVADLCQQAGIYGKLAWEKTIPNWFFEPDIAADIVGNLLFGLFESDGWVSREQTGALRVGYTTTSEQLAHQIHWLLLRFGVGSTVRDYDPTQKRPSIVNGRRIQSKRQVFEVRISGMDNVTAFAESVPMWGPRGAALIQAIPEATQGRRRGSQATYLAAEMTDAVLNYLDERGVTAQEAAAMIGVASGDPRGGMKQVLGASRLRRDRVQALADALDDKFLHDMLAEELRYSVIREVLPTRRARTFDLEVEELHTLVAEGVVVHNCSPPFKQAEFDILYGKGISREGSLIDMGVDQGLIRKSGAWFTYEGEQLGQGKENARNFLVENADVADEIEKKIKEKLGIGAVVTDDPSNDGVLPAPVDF

[4] = insulin promoter down-regulators in MIN6 cells, imaging, high-content screening, mouse beta cells (AID 1628); type: functional
[5] = cytotoxicity in MIN6 insulinoma cells, dose response, cytotoxicity control, cell-based, mouse insulinoma (AID 2122); type: functional;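 note: confirmatory high-throughput counterscreen run to flag cytotoxic compounds; mouse MIN-6 beta cells carrying an insulin promoter eGFP reporter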
CAAX prenyl protease 2 [6] = biological target: T4, CAAX prenyl protease 2 (Saccharomyces cerevisiae S288c, UniProt Q03530); type: biochemical
T4 sequence (Q03530 whole entry): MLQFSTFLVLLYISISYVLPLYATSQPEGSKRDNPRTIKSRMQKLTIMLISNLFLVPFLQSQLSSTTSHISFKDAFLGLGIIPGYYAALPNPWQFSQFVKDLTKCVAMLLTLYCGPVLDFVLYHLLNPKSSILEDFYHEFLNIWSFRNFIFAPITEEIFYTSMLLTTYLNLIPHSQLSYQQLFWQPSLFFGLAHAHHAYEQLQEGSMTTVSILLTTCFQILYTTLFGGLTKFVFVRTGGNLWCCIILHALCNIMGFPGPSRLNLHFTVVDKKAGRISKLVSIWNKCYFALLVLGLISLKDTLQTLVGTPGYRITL

CAAX prenyl protease 2 [7] = biological target: CAAX prenyl protease 2 (Homo sapiens, UniProt Q9Y256); assay: human Rce1 protease inhibitors, dose response, biochemical, yeast membranes, quenched-peptide fluorescence, cherry-pick (AID 588849)
Sequence of CAAX prenyl protease 2 (Homo sapiens, UniProt Q9Y256) (Q9Y256 whole entry): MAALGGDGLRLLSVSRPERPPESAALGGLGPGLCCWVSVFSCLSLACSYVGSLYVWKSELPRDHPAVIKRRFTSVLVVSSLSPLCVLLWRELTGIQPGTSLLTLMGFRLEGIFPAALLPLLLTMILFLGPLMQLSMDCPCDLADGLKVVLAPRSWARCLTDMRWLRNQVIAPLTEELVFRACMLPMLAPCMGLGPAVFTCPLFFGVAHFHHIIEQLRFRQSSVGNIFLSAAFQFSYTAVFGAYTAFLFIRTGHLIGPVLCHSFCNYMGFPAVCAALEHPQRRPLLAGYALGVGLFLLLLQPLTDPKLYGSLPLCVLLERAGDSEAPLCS

Exodeoxyribonuclease V = Exodeoxyribonuclease V (Escherichia coli (strain K12), UniProt P04993+P07648+P08394); assay: E. coli RecBCD inhibitors, dose response, counter-screen for AddAB inhibitor project, absorbance, V66 E. coli, mutant T4 phage (AID 492957); type: functional, cell-based, Escherichia coli str. K-12 substr. MG1655
Sequence of Exodeoxyribonuclease V (P04993 whole entry): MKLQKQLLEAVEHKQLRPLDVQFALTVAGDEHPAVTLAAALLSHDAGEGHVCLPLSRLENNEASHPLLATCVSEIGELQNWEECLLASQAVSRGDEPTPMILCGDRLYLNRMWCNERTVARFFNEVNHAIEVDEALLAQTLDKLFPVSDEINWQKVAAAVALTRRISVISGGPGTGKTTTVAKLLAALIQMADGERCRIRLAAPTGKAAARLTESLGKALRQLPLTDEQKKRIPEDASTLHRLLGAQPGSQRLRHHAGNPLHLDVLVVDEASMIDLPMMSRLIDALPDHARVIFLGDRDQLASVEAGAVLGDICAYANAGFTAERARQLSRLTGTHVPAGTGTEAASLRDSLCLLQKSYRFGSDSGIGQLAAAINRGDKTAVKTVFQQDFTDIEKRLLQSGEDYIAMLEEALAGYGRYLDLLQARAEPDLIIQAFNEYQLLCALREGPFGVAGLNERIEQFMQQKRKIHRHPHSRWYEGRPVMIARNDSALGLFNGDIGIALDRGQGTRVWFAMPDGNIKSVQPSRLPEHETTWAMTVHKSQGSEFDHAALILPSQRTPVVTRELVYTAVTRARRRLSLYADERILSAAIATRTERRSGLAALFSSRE
Sequence of Exodeoxyribonuclease V (P07648 whole entry): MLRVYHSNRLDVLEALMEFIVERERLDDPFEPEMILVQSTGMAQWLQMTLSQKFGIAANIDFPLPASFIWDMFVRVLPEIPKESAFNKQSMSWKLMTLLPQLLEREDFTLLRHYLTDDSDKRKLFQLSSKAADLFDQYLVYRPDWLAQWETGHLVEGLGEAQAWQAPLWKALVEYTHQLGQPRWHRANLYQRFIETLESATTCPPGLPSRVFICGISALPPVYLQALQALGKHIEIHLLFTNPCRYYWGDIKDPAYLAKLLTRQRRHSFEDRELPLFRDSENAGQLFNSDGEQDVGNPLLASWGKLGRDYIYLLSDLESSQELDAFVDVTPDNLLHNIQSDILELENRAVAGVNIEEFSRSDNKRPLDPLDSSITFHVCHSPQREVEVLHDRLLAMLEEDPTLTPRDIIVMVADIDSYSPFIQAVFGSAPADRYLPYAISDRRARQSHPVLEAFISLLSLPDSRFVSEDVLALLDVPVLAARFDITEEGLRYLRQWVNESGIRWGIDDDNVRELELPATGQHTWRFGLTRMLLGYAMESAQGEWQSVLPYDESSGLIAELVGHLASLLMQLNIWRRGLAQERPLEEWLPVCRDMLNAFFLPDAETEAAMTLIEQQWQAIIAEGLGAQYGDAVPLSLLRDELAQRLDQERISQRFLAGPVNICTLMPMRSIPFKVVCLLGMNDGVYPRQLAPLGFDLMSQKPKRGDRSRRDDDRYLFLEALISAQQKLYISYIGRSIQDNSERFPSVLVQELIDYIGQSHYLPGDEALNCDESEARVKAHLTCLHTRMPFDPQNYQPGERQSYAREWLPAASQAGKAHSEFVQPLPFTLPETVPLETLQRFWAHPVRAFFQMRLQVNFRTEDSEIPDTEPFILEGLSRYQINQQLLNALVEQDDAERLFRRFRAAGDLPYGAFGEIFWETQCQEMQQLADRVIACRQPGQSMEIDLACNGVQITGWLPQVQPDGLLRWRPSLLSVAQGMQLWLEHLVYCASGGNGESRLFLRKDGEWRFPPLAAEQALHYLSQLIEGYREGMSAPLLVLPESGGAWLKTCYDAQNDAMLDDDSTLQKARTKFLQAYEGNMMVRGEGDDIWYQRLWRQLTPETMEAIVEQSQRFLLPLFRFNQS
Sequence of Exodeoxyribonuclease V (P08394 whole entry): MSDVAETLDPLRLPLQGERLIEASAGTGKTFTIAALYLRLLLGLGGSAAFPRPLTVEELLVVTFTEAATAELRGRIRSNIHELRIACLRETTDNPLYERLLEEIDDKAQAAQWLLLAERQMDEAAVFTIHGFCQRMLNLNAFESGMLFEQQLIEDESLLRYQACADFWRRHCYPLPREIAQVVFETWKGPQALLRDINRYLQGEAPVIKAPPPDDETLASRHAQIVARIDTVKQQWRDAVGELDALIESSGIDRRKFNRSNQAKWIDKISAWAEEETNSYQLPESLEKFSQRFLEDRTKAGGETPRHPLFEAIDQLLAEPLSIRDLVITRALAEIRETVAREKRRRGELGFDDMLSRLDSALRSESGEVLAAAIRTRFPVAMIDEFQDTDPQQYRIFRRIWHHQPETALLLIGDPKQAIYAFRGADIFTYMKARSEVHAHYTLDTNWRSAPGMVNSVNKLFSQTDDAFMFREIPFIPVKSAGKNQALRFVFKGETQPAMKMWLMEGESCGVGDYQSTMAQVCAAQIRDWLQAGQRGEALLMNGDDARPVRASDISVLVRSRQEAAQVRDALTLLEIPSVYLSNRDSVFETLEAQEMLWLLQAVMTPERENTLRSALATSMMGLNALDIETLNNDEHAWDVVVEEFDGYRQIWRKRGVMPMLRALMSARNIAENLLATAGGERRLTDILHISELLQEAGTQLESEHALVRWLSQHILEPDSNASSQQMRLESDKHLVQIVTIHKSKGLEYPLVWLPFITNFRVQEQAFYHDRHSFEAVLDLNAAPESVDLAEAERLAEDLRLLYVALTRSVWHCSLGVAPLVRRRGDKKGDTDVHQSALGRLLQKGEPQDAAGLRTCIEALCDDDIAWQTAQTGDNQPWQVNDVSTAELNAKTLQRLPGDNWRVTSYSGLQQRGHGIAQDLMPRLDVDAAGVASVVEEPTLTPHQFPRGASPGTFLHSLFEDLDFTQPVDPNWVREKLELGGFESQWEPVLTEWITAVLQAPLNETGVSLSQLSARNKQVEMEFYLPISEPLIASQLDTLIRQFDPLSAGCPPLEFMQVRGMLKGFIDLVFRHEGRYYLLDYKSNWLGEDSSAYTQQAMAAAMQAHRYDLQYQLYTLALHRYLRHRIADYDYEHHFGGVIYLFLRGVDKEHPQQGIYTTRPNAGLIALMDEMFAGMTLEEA

[8] = Luminescence Cell-Based Dose Retest to Confirm Inhibitors of Cancer Stem Cells. [Related pubchem assays (depositor defined):AID2717, AID2721]; type: functional; settings: Homo sapiens
Nonstructural protein 1 = Nonstructural protein 1 (Influenza A virus, UniProt Q194T2); type: functional, Influenza A virus (A/California/07/2009(H1N1))
Sequence of Nonstructural protein 1 (Q194T2 whole entry): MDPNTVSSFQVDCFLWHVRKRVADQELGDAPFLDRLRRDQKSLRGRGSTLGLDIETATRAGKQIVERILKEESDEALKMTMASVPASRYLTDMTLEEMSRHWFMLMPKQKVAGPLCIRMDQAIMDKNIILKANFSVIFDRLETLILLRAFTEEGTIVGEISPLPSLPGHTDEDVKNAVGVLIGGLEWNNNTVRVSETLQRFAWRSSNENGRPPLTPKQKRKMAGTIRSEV

[9] = Counterscreen for AddAB inhibitors: absorbance-based bacterial cell-based high throughput dose response assay for inhibitors of bacterial viability. [Related pubchem assays (depositor defined):AID435030, AID449728, AID449731, AID488942, AID488955, AID488956]; type: functional
BJ = assay: cytotoxicity toward Ras-transformed BJeLR fibroblasts, dose response, cell-based, alamar blue fluorescence, cherrypicked samples (AID 2631); type: functional; settings: Homo sapiens;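 note: confirmatory dose-response assay in RAS-dependent BJ fibroblasts engineered with TERT, LT and ST, with cytotoxicity read by fluorescence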
INS1 = assay: beta cell apoptosis inhibitors, cytokine rescue, dose response, luminescence, retest (AID 449756); type: functional, cell-based; settings: Rattus norvegicus;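 note: cell death triggered by IL-1 beta plus TNF-alpha plus IFN-gamma mixture; protective hits raise ATP signal compared with cytokine alone wells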

Structure (SMILES): COC(=O)C1=NN(C(=O)c2cccc(Br)c2)C(O)(c2ccc(Cl)cc2)C1 (configuration not stated)
- EC50 [1]: 2.9 µM (active)
- EC50 (Streptococcus): 3.87 µM (active)
- IC50 (Beta-galactosidase): > 66.6 µM (inactive)
- EC50 [2]: 5.31 µM (active)
- AC50 [3]: > 380 µM (inactive)
- IC50 (Apelin receptor): 12.1 µM (active)
- EC50 (Protein RecA): 13.7 µM (active)

Structure (SMILES): Cc1nn(C)c(C)c1CNC(=O)c1cc2n(n1)C(C(F)(F)F)CC(c1cccs1)N2 (configuration not stated)
- IC50 [4]: 1.94 µM (active)
- IC50 [5]: 1.11 µM (active)

Structure (SMILES): CCOc1ccc2nc(O)c(CN(CCN3CCOCC3)Cc3nnnn3C(C)(C)CC)cc2c1
- AC50 (CAAX prenyl protease 2 [6]): > 100 µM (inactive)
- AC50 (CAAX prenyl protease 2 [7]): 7.54 µM (active)

Structure (SMILES): COc1cccc(/C=N/Nc2ncnc(Cl)c2N)c1O
- IC50 (Exodeoxyribonuclease V): > 119 µM (inactive)
- AC50 [8]: 2.96 µM (active)
- IC50 (Nonstructural protein 1): 3.65 µM (active)
- IC50 [9]: > 119 µM (inactive)
- EC50 (BJ): 1.27 µM (inconclusive)
- AC50 (INS1): 1.02 µM (active)
